Experiments:
Format in all cases: biochemical
human sEH-NTD = biological target: T1, human sEH-NTD (Homo sapiens, UniProt P34913); assay: FDP-based phosphatase assay, isolated N-terminal domain; settings: phosphatase activity of the isolated N-terminal domain, FDP substrate, pH 5.75; mean ± SD, n = 3
T1 construct: made in house
T1 sequence (P34913 1-224 limits assumed): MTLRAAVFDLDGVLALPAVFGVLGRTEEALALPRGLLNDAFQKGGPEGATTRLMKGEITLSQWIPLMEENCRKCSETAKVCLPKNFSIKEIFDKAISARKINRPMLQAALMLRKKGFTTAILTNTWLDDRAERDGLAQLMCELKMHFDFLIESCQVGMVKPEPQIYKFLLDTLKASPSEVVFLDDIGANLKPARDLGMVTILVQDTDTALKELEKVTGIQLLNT
Method: (§1) The FDP assay was performed as published previously by Klingler et al. using frozen sEH-PD as well as full-length human, mouse, and rat sEH. In brief, the assay was performed in a black 96-well microplate in which 1 μL of compound in DMSO (or DMSO only in the case of the positive control) was mixed with 89 μL of protein solution (final concentration of 0.1 μM for sEH-PD, full-length human sEH, and full-length rat sEH and 0.01 μM for full-length mouse sEH) in phosphatase assay buffer (50 mM acetate, 10 mM MgCl2, pH 5.75) supplemented with 0.01% w/v Triton X-100. For the blank, assay buffer without protein was used. The plates were incubated at rt for 30 min to allow binding of the inhibitor. To start the reaction, 10 μL of FDP solution (10 μM final concentration) in assay buffer was added, and the fluorescence changes (λex = 485 nm, λem = 525 nm) were detected at 30 time points over the duration of 30 min using an Infinite F200 PRO plate reader (Tecan, Crailsheim, Germany). All samples were measured in triplicate. The percent inhibition was calculated relative to the activities of the blank well (without protein) and positive control well (without inhibitor).

human sEH-FL (P) = biological target: T2, human sEH-FL (P) (Homo sapiens, UniProt P34913); assay: FDP-based phosphatase assay, full-length sEH; settings: phosphatase activity of the full-length sEH protein, FDP substrate; mean ± SD, n = 3
T2 construct: The full-length human sEH was previously published by Lukin et al; made in house
T2 sequence (P34913 1-555): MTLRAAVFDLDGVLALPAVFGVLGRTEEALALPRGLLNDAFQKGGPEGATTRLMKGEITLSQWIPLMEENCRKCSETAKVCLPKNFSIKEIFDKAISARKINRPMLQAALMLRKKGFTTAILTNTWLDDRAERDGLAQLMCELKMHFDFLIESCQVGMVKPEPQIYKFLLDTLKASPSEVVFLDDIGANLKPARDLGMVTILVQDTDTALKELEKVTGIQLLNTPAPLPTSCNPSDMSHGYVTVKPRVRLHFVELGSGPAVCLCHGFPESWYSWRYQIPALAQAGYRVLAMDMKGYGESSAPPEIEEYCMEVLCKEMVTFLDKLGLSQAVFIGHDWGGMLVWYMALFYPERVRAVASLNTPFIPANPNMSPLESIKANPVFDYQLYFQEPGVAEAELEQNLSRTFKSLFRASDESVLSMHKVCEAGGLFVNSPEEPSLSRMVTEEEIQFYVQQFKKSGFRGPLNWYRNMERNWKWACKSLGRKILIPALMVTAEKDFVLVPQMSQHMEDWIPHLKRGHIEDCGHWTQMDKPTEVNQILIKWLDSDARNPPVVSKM
Method: as §1

rat sEH-FL (P) = biological target: T3, rat sEH-FL (P) (Rattus norvegicus, UniProt P80299); assay: FDP-based phosphatase assay, full-length sEH; settings: phosphatase activity of the full-length sEH protein, FDP substrate; mean ± SD, n = 3
T3 construct: using frozen sEH-PD as well as full-length human, mouse, and rat sEH
T3 sequence (P80299 1-554): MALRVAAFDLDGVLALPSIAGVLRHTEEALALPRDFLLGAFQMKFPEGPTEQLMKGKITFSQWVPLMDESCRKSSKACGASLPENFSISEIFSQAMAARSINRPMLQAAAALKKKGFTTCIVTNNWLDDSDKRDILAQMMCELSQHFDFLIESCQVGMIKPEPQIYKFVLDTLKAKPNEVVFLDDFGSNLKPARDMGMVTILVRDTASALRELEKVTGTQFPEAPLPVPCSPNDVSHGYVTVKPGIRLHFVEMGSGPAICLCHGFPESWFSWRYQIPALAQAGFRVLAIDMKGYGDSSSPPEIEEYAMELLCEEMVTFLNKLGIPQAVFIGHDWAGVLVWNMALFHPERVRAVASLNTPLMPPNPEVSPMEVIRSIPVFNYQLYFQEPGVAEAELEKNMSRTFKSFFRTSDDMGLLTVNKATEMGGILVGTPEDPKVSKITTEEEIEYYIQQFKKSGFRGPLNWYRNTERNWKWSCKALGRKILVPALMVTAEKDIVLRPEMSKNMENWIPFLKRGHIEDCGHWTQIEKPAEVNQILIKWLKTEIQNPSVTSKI
Method: as §1

human sEH-FL (H) = biological target: T4, human sEH-FL (H) (Homo sapiens, UniProt P34913); assay: PHOME-based hydrolase assay, full-length sEH; settings: hydrolase activity of the full-length sEH protein, PHOME substrate; mean ± SD, n = 3
T4 construct: The full-length human sEH was previously published by Lukin et al; made in house
T4 sequence (P34913 1-555): T2 sequence (P34913 1-555)
Method: The fluorescence-based sEH hydrolase activity assay was performed as described previously in a 96-well format with some minor modifications. In short, full-length sEH (3 nM final concentration for all tested proteins) was dissolved in hydrolase assay buffer (Bis-Tris buffer, pH 7) supplemented with 0.1 mg mL^–1 BSA as well as Triton-X 100 to a final concentration of 0.01%. Protein solution (89 μL) was incubated with 1 μL of different concentrations of compounds (final DMSO concentration 1%) for 30 min at rt. The reaction was started by addition of 10 μL of a cyano­(6-methoxy-2-naphthalenyl)­methyl 3-phenyloxiran-2-ylacetate (PHOME) solution (final concentration of 50 μM). Hydrolysis of the nonfluorescent substrate by sEH to release fluorescent 6-methoxynaphthaldehyde was measured (λex = 330 nm, λem = 465 nm) using a Tecan Infinite F200PRO plate reader. The reaction was monitored over a duration of 45 min (one point every minute). A blank control (no protein and no compound) and a positive control (no compound) were carried out as well. All measurements were performed in triplicate.

IC50 (human sEH-NTD): 0.058 ± 0.005 µM | IC50 (human sEH-FL (P)): 4 ± 1 µM | IC50 (rat sEH-FL (P)): 2.8 ± 2.2 µM | IC50 (human sEH-FL (H)): 9.5 ± 0.5 µM
SMILES: O=C(O)CCCc1nc(-c2ccc(Cl)c(Cl)c2)c(-c2ccccc2)o1 [Compound 2]

— publication PMC13505187, “Fragment-Based Discovery of Fenamic Acids as Pan-Species Inhibitors of the Soluble Epoxide Hydrolase Phosphatase Domain” (ACS Chemical Biology, 2026)
